Assay results: US11098010B2 (priority 2017, dated 2021)
Where a name gives a salt, the structure may show the parent alone. Read-outs that look alike come from different tables or passages of the source.

Test system: HBV rcDNA in HepDE19 cells
Assay: HepDE19 assay with bDNA quantitation of HBV rcDNA
Assay type: cell-based, hepatitis B virus (HBV)
[1] = Hepatitis B virus, HepDE19, 168 h, read-out: DE-19 bDNA EC50 (μM), HepDE19 cells, inhibition of rcDNA formation, 7 day incubation, top concentration 25 μM
[2] = Hepatitis B virus, HepDE19, 168 h, HepDE19 cells, inhibition of rcDNA formation, 7 day incubation, top concentration 25 μM, read-out: DE-19 bDNA EC50

Row | SMILES | EC50 [1] [µM] | also measured
1 | Cc1cnc(N[C@H]2CCc3c(C(=O)Nc4ccc(F)c(Cl)c4)ccc(F)c32)nc1 [Compound 162, (S)—N-(3-Chloro-4-fluorophenyl)-7-fluoro-1-((5-methylpyrimidin-2-yl)amino)-2,3-dihydro-1H-indene-4-carboxamide] | 0.15 | 
2 | COc1cc(N[C@H]2CCc3c(C(=O)Nc4ccc(F)c(Cl)c4)ccc(F)c32)ncn1 [Compound 163, (S)—N-(3-Chloro-4-fluorophenyl)-7-fluoro-1-((6-methoxypyrimidin-4-yl)amino)-2,3-dihydro-1H-indene-4-carboxamide] | 0.07 | 
3 | Cc1cc(C)nc(N[C@H]2CCc3c(C(=O)Nc4ccc(F)c(Cl)c4)ccc(F)c32)n1 [Compound 164, (S)—N-(3-Chloro-4-fluorophenyl)-1-((4,6-dimethylpyrimidin-2-yl)amino)-7-fluoro-2,3-dihydro-1H-indene-4-carboxamide] | 1 | 
4 | CNC(=O)N[C@@H]1c2cccc(C(=O)Nc3ccc(F)c(Cl)c3)c2C[C@H]1OC [Compound 165, (1R,2R)—N-(3-Chloro-4-fluorophenyl)-2-methoxy-1-(3-methylureido)-2,3-dihydro-1H-indene-4-carboxamide] | 0.33 | 
5 | O=C1C[C@H](OC(=O)N[C@H]2CCc3c(C(=O)Nc4ccc(F)c(Cl)c4)ccc(F)c32)CN1 [Compound 166, O—(S)-5-Oxopyrrolidin-3-yl, N—((S)-4-((3-chloro-4-fluorophenyl)carbamoyl)-7-fluoro-2,3-dihydro-1H-inden-1-yl) carbamate] |  | EC50 [2]: 0.14 µM
6 | O=C(Nc1ccc(F)c(Cl)c1)c1ccc(F)c2c1CC[C@@H]2NS(=O)(=O)CCc1ccccn1 [Compound 167, (S)—N-(3-Chloro-4-fluorophenyl)-7-fluoro-1-((2-(pyridin-2-yl)ethyl)sulfonamido)-2,3-dihydro-1H-indene-4-carboxamide Hydrochloride] | 0.29 | 
7 | O=C(N[C@H]1CCc2c(C(=O)Nc3ccc(F)c(Cl)c3)ccc(F)c21)OCc1cccc(C(F)(F)F)n1 [Compound 168, O-(6-(Trifluoromethyl)pyridin-2-yl)methyl, N—(S)-(4-((3-chloro-4-fluorophenyl)carbamoyl)-7-fluoro-2,3-dihydro-1H-inden-1-yl) carbamate] | 0.62 | 
8 | O=C(N[C@H]1CCc2c(C(=O)Nc3ccc(F)c(Cl)c3)ccc(F)c21)OCc1ccc(C(F)(F)F)cn1 [Compound 169, O-(5-(Trifluoromethyl)pyridin-2-yl)methyl, N—(S)-(4-((3-chloro-4-fluorophenyl)carbamoyl)-7-fluoro-2,3-dihydro-1H-inden-1-yl) carbamate] | 2.2 | 
9 | O=C(N[C@H]1CCc2c(C(=O)Nc3ccc(F)c(Cl)c3)ccc(F)c21)O[C@@H]1CCOC1 [Compound 170, O—(R)-Tetrahydrofuran-3-yl, N—((S)-4-((3-chloro-4-fluorophenyl)carbamoyl)-7-fluoro-2,3-dihydro-1H-inden-1-yl) carbamate] |  | EC50 [2]: 0.26 µM
10 | Cn1ccc(CCC(=O)N[C@H]2CCc3c(C(=O)Nc4ccc(F)c(Cl)c4)ccc(F)c32)n1 [Compound 171, (S)—N-(3-Chloro-4-fluorophenyl)-7-fluoro-1-(3-(1-methyl-1H-pyrazol-3-yl)propanamido)-2,3-dihydro-1H-indene-4-carboxamide] |  | EC50 [2]: 0.13 µM
11 | N#Cc1ccc(COC(=O)N[C@H]2CCc3c(C(=O)Nc4ccc(F)c(Cl)c4)ccc(F)c32)nc1 [Compound 172, O-(5-Cyanopyridin-2-yl)methyl, N—(S)-(4-((3-chloro-4-fluorophenyl)carbamoyl)-7-fluoro-2,3-dihydro-1H-inden-1-yl) carbamate] | 0.19 | 
12 | Cc1nccnc1COC(=O)N[C@H]1CCc2c(C(=O)Nc3ccc(F)c(Cl)c3)ccc(F)c21 [Compound 173, O-(3-Methylpyrazin-2-yl)methyl, N—(S)-(4-((3-chloro-4-fluorophenyl)carbamoyl)-7-fluoro-2,3-dihydro-1H-inden-1-yl) carbamate] | 0.12 | 
13 | CC(=O)N1CCC(COC(=O)N[C@H]2CCc3c(C(=O)Nc4ccc(F)c(Cl)c4)ccc(F)c32)CC1 [Compound 174, O-(1-Acetylpiperidin-4-yl)methyl, N—(S)-(4-((3-chloro-4-fluorophenyl)carbamoyl)-7-fluoro-2,3-dihydro-1H-inden-1-yl) carbamate] | 0.87 | 
14 | O=C(N[C@H]1CCc2c(C(=O)Nc3ccc(F)c(Cl)c3)ccc(F)c21)OCC1CCN(C(=O)CO)CC1 [Compound 175, O-(1-(2-Hydroxyacetyl)piperidin-4-yl)methyl, N—(S)-(4-((3-chloro-4-fluorophenyl)carbamoyl)-7-fluoro-2,3-dihydro-1H-inden-1-yl) carbamate] | 0.96 | 
15 | CNC(=O)N1CCC(COC(=O)N[C@H]2CCc3c(C(=O)Nc4ccc(F)c(Cl)c4)ccc(F)c32)CC1 [Compound 176, O-(1-(Methylcarbamoyl)piperidin-4-yl)methyl, N—(S)-(4-((3-chloro-4-fluorophenyl)carbamoyl)-7-fluoro-2,3-dihydro-1H-inden-1-yl) carbamate] | 0.64 | 
16 | O=C(N[C@H]1CCc2c(C(=O)Nc3ccc(F)c(Cl)c3)ccc(F)c21)OCC1CS(=O)(=O)CCN1 (stereo partly drawn) [Compound 177, O-(1,1-Dioxidothiomorpholin-3-yl)methyl, N—((S)-4-((3-chloro-4-fluorophenyl)carbamoyl)-7-fluoro-2,3-dihydro-1H-inden-1-yl) carbamate Hydrochloride] | 0.5 | 
17 | CO[C@@H]1Cc2c(C(=O)Nc3ccc(F)c(Cl)c3)ccc(F)c2[C@H]1NC(=O)OCc1ccccn1 [Compound 178, O-Pyridin-2-ylmethyl, N-((1R,2R)-4-((3-chloro-4-fluorophenyl)carbamoyl)-7-fluoro-2-methoxy-2,3-dihydro-1H-inden-1-yl) carbamate] |  | EC50 (HepDE19 cells, inhibition of rcDNA formation, 7 day incubation, top concentration 25 μM, read-out: DE-19 bDNA EC50): 0.04 µM
18 | O=C(Nc1ccc(F)c(Cl)c1)c1ccc(F)c2c1CC[C@@H]2NC(=O)C1CC1 [Compound 179, (S)—N-(3-Chloro-4-fluorophenyl)-1-(cyclopropanecarboxamido)-7-fluoro-2,3-dihydro-1H-indene-4-carboxamide] |  | EC50 [2]: 0.14 µM
19 | O=C(N[C@H]1CCc2c(C(=O)Nc3ccc(F)c(Cl)c3)ccc(F)c21)OC[C@@H]1COCCN1 [Compound 180, O—((S)-Morpholin-3-yl)methyl, N—((S)-4-((3-chloro-4-fluorophenyl)carbamoyl)-7-fluoro-2,3-dihydro-1H-inden-1-yl) carbamate Hydrochloride] | 0.2 | 
20 | O=C(N[C@H]1CCc2c(C(=O)Nc3ccc(F)c(Cl)c3)ccc(F)c21)O[C@H]1CCOC1 [Compound 181, O—(S)-Tetrahydrofuran-3-yl, N—((S)-4-((3-chloro-4-fluorophenyl)carbamoyl)-7-fluoro-2,3-dihydro-1H-inden-1-yl) carbamate] |  | EC50 [2]: 0.15 µM
21 | COCCS(=O)(=O)N[C@H]1CCc2c(C(=O)Nc3ccc(F)c(Cl)c3)ccc(F)c21 [Compound 182, (S)—N-(3-Chloro-4-fluorophenyl)-7-fluoro-1-((2-methoxyethyl)sulfonamido)-2,3-dihydro-1H-indene-4-carboxamide] |  | EC50 [2]: 0.59 µM
22 | O=C(Nc1ccc(F)c(Cl)c1)c1ccc(F)c2c1CC[C@@H]2NS(=O)(=O)c1ccccc1 [Compound 183, (S)—N-(3-Chloro-4-fluorophenyl)-7-fluoro-1-(phenylsulfonamido)-2,3-dihydro-1H-indene-4-carboxamide] | 0.65 | 
